Data: US8969336B2, “Diamino heterocyclic carboxamide compound” (Astellas Pharma Inc., priority 2009, dated 2015)

Legend:
ROS protein = ROS protein (Homo sapiens (Human), UniProt P08922); test: Inhibitory activity against the kinase activity of ROS protein; assay type: biochemical; conditions: ROS kinase domain, ATP 50 uM
RET protein = RET protein (Homo sapiens (Human), UniProt P07949); test: Inhibitory activity against the kinase activity of RET protein; assay type: biochemical; conditions: RET kinase domain, ATP 100 μM, reaction 30 minutes
[1] = test system: BA/F3 cells expressing EML4-ALK fusion protein v1; test: Growth inhibitory activity against EML4-ALK fusion protein-dependent cells; assay type: cell-based, mouse; conditions: Mus musculus, BaF3, 48 h, growth of EML4-ALK fusion protein v1-expressing BA/F3 cells, cultured 2 days
Protocol: EML4-ALK fusion protein v1-expressing BA/F3 cells can grow in the absence of IL-3. In other words, they are cells that EML4-ALK fusion protein v1-dependently grow.
In a 96-well plate (Iwaki), BA/F3 cells expressing EML4-ALK fusion protein v1 were seeded at 500 cells per well in RPMI1640 medium (Invitrogen) containing 10% fetal bovine serum, followed by addition of a test compound (final concentration: 10 μM to 0.1 nM). As a negative control, DMSO used as a solvent of the test compound was added. Then, the cells were cultured under 5% CO2 at 37° C. for 2 days. A cell counting reagent (AlmarBlue; Biosource) was added, and the cells were cultured for 150 minutes, followed by measurement of fluorescence intensity with a […] (Safire; Tecan) in accordance with instructions attached to the reagent.

[2] = test system: human non-small cell lung cancers cell line NCI-H2228 cells; test: Antitumor test (in vivo) on NCI-H2228 cells; conditions: NOD/SCID mice
Excerpt: The antitumor effects on EML4-ALK fusion protein-dependent cells can also be confirmed by use of human non-small cell lung cancers cell line NCI-H2228 cells (cells derived from EML4-ALK fusion polynucleotide-positive lung cancer patients (EML4-ALK fusion protein v3-dependent cells)) in place of the EML4-ALK fusion protein v1 expressing 3T3 cells of Test Example 3, as shown below.
3×10^6 cells of NCI-H2228 cells suspended in 50% Matrigel (Invitrogen) were inoculated subcutaneously by injection to the back of 5 weeks old male NOD/SCID mice (Charles River Japan, Inc.). After 3 weeks of the inoculation, the administration of test compounds was initiated. The test was conducted in the solvent group and test compound groups, 6 animals per group. The test compounds were each dissolved in a solvent composed of 10% 1-methyl-2-pyrrolidinone (SIGMA-ALDRICH Inc.)/90% polyethylene glycol 300 (Fluka Inc.) and administered orally at a dose of 1 mg/kg. Administrations were performed once a day for 14 days, and body weight and tumor size were measured every other day. Tumor volume was calculated using the following formula. [Tumor volume(mm^3)]=[Tumor major axis(mm)]×[tumor minor axis(mm)]^2×0.5

[3] = biological target: EML4-ALK fusion protein v1 (Homo sapiens (Human), UniProt Q9UM73); test: Inhibitory activity against the kinase activity of EML4-ALK fusion protein (HTRF KinEASE-TK); assay type: biochemical; conditions: ATP 100 μM, reaction 1 hour
Excerpt: A recombinant retrovirus was created from expression plasmid FLAG-EML4-ALKv1/pMX-iresCD8 in which cDNA for EML4-ALK fusion protein v1 was integrated, and injected into mouse lymphoid cell line BA/F3 cells. Using a magnetic bead reagent for cell separation and a purification column (anti-CD8 monoclonal antibody immobilized on magnetic beads and a MiniMACS purification column; both are products of Miltenyi Biotec Inc.), cell surface CD8-expressing cells were purified to establish EML4-ALK fusion protein v1-expressing BA/F3 cells. From the cells, EML4-ALK fusion protein v1 was purified and subjected to kinase activity evaluation. EML4-ALK fusion protein v1 was investigated for its phosphorylation activity toward a peptide substrate by using a kinase activity detection kit (HTRF KinEASE-TK; Cisbio Inc.). […] The ATP concentration used was 100 μM.

[4] = test system: EML4-ALK fusion protein v1 expressing 3T3 cells; test: Antitumor test (in vivo) on EML4-ALK fusion protein v1 expressing 3T3 cells; conditions: oral 10 mg/kg once a day for 5 days, Balb/c nude mice, EML4-ALK v1 3T3 tumor; values marked (regression)
Excerpt: Expression plasmid EML4-ALKv1/pMXS in which cDNA for EML4-ALK fusion protein v1 was integrated was trasfected into 3T3 fibroblast cells by the phosphate calcium method to thereby establish EML4-ALK fusion protein v1 expressing 3T3 cells. 3×10^6 cells of EML4-ALK fusion protein v1 expressing 3T3 cells suspended in PBS were inoculated subcutaneously by injection to the back of 5 weeks old male Balb/c nude mice (Charles River Japan, Inc.). After 7 days of the inoculation, the administration of test compound was initiated. The test was conducted in the solvent group and the compound group, 4 animals per group. The test compound was suspended in a solvent composed of 0.5% methylcellulose and administered orally at a dose of 10 mg/kg. Administrations were performed once a day for 5 days, and body weight and tumor size were measured every other day. Tumor volume was calculated using the following formula. [Tumor volume(mm^3)]=[Tumor major axis(mm)]×[tumor minor axis(mm)]^2×0.5
When regression of tumor volume is induced from the day of starting administration, the tumor volume on the day of starting administration and the state in which the tumor disappeared were assumed to be 0% regression and 100% regression, respectively, and the rate of regression of the test compound was calculated.

Chain of EML4-ALK fusion protein v1 (Q9UM73 other isoform, or with tags, fused parts or gaps): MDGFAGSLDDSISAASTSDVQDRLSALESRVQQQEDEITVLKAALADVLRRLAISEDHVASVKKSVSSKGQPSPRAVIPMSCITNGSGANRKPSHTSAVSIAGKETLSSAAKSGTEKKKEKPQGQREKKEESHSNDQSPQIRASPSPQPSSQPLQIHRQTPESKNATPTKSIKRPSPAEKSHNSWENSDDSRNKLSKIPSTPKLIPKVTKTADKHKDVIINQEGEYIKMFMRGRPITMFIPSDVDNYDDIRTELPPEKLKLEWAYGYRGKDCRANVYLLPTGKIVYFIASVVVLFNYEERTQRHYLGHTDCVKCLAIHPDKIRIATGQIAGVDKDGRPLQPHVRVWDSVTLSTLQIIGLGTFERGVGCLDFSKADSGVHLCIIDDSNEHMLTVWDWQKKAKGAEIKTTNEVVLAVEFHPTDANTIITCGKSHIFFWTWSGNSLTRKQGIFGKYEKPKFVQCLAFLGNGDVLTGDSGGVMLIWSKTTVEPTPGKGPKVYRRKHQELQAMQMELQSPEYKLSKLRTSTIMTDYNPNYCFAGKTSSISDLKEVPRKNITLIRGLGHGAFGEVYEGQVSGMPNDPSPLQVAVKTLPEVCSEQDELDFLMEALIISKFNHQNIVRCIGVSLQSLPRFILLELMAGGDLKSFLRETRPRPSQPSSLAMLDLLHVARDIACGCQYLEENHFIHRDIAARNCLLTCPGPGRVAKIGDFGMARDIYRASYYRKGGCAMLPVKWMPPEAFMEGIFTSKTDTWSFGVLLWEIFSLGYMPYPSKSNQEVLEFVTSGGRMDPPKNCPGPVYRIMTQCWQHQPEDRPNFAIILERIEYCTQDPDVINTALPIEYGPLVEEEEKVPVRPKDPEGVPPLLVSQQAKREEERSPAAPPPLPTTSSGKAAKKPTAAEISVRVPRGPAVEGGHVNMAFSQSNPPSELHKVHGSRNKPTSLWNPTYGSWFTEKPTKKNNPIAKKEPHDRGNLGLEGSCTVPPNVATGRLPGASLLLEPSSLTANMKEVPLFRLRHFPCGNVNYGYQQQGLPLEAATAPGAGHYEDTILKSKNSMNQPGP
Chain of ROS protein (P08922 1945-2222): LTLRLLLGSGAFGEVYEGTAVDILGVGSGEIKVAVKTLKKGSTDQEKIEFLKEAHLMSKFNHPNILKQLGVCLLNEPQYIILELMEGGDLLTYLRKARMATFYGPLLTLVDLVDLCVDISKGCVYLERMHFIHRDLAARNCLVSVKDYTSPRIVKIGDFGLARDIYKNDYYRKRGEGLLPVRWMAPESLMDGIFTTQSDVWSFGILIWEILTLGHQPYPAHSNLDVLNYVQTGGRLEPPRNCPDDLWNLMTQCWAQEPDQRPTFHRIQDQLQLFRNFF
Chain of RET protein (P07949 724-1016): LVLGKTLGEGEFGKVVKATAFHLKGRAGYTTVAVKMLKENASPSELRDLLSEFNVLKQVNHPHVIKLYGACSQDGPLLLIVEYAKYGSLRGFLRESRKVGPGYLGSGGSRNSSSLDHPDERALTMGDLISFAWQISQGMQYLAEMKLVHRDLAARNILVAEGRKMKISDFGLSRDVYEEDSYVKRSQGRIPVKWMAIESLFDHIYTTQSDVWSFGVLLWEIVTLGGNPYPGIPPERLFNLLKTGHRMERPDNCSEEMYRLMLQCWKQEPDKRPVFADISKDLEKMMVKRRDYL

| IC50 (ROS protein) | IC50 (RET protein) | Compound | IC50 [1] | growth inhibition against NCI-H2228 cells (tumor) compared with the solvent group ([2]; oral administration, Student's t-test) | IC50 [3] | inhibition rate of growth of tumor of NCI-H2228 cells ([2]; oral 1 mg/kg once a day for 14 days) | rate of regression (tumor volume) [4] |
| --- | --- | --- | --- | --- | --- | --- | --- |
| 1.9 nM | 3.4 nM | CCc1nc(C(N)=O)c(Nc2ccc(N3CCC(N4CCN(C)CC4)CC3)c(OC)c2)nc1NC1CCOCC1 [Example 577] | – | – | – | – | – |
| – | – | NC(=O)c1cnc(N[C@@H]2CCCC[C@@H]2N)nc1Nc1ccc(-c2ccc(N3CCOCC3)cc2)cc1 (racemic) [Compound X, rac-2-{[(1R,2S)-2-aminocyclohexyl]amino}-4-{[4′-(morpholin-4-yl)biphenyl-4-yl]amino}pyrimidine-5-carboxamide, reference compound] | 821 nM | no significant growth inhibition | 220 nM | – | – |
| – | – | CC(C)c1nc(C(N)=O)c(Nc2ccc(N3CCC(N4CCN(C)CC4)CC3)cc2)nc1NC1CCOCC1 [Example 549] | 14 nM | – | 2.1 nM | 69% | 67 (regression) % |
